Measurements taken from patent US10906873B2, “Substituted cyclic amides as herbicides” (FMC Corporation, priority 2015, dated 2021).

Experiments:
Type in all cases: in vivo
rice (Oryza sativa) = experiment: Test B flooded paddy test, rice; details: Flood, 500 g ai/ha; scale of 0 to 100 where 0 is no effect and 100 is complete control; 13 to 15 d
Method: (§1) Plant species in the flooded paddy test selected from rice (Oryza sativa), sedge, umbrella (small-flower umbrella sedge, Cyperus difformis), ducksalad (Heteranthera limosa), and barnyardgrass (Echinochloa crus-galli) were grown to the 2-leaf stage for testing. At time of treatment, test pots were flooded to 3 cm above the soil surface, treated by application of test compounds directly to the paddy water, and then maintained at that water depth for the duration of the test. Treated plants and controls were maintained in a greenhouse for 13 to 15 d, after which time all species were compared to controls and visually evaluated. Plant response ratings, summarized in Table B, are based on a scale of 0 to 100 where 0 is no effect and 100 is complete control. A dash (-) response means no test result.

[1] = test system: pigweed (Amaranthus retroflexus); experiment: Test A postemergence, pigweed; details: 0 to 100 scale
Text: (§2) Seeds of plant species selected from barnyardgrass (Echinochloa crus-galli), crabgrass (large crabgrass, Digitaria sanguinalis), kochia (Kochia scoparia), ragweed (common ragweed, Ambrosia elatior), morningglory (Ipomoea spp.), velvetleaf (Abutilon theophrasti), ryegrass, It. (Italian ryegrass, Lolium multiflorum), foxtail, giant (giant foxtail, Setaria faberii), wheat (Triticum aestivum), corn (Zea mays), and pigweed (Amaranthus retroflexus), were planted into a blend of loam soil and sand and treated preemergence with a directed soil spray using test chemicals formulated in a non-phytotoxic solvent mixture which included a surfactant. At the same time, plants selected from these crop and weed species and also blackgrass (Alopecurus myosuroides), and galium (catchweed bedstraw, Galium aparine), were planted in pots containing the same blend of loam soil and sand and treated with postemergence applications of test chemicals formulated in the same manner. Plants ranged in height from 2 to 10 cm and were in the one- to two-leaf stage for the postemergence treatment. Treated plants and untreated controls were maintained in a greenhouse for approximately 10 d, after which time all treated plants were compared to untreated controls and visually evaluated for injury. Plant response ratings, summarized in Table A, are based on a 0 to 100 scale where 0 is no effect and 100 is complete control. A dash (-) response means no test result.

[2] = test system: galium (catchweed bedstraw, Galium aparine); experiment: Test A postemergence, galium; details: 0 to 100 scale
Text: as §2

[3] = test system: ragweed (common ragweed, Ambrosia elatior); experiment: Test A preemergence, ragweed; details: 0 to 100 scale
Text: as §2

kochia (Kochia scoparia) [4] = experiment: Test A preemergence, kochia; details: 0 to 100 scale
Text: as §2

[5] = test system: foxtail, giant (giant foxtail, Setaria faberii); experiment: Test A postemergence, foxtail, giant; details: 0 to 100 scale
Text: as §2

[6] = test system: barnyardgrass (Echinochloa crus-galli); experiment: Test A postemergence, barnyardgrass; details: 0 to 100 scale
Text: as §2

[7] = test system: sedge, umbrella (small-flower umbrella sedge, Cyperus difformis); experiment: Test B flooded paddy test, sedge, umbrella; details: Flood, 500 g ai/ha; scale of 0 to 100 where 0 is no effect and 100 is complete control; 13 to 15 d
Method: as §1

[8] = test system: ragweed (common ragweed, Ambrosia elatior); experiment: Test A postemergence, ragweed; details: 0 to 100 scale
Text: as §2

[9] = test system: ryegrass, It. (Italian ryegrass, Lolium multiflorum); experiment: Test A postemergence, ryegrass, It.; details: 0 to 100 scale
Text: as §2

[10] = test system: blackgrass (Alopecurus myosuroides); experiment: Test A postemergence, blackgrass; details: 0 to 100 scale
Text: as §2

corn (Zea mays) = experiment: Test A postemergence, corn; details: 0 to 100 scale
Text: as §2

[11] = test system: barnyardgrass (Echinochloa crus-galli); experiment: Test A preemergence, barnyardgrass; details: 0 to 100 scale
Text: as §2

[12] = test system: ryegrass, It. (Italian ryegrass, Lolium multiflorum); experiment: Test A preemergence, ryegrass, It.; details: 0 to 100 scale
Text: as §2

[13] = test system: foxtail, giant (giant foxtail, Setaria faberii); experiment: Test A preemergence, foxtail, giant; details: 0 to 100 scale
Text: as §2

kochia (Kochia scoparia) [14] = experiment: Test A postemergence, kochia; details: 0 to 100 scale
Text: as §2

[15] = test system: pigweed (Amaranthus retroflexus); experiment: Test A preemergence, pigweed; details: 0 to 100 scale
Text: as §2

[16] = test system: barnyardgrass (Echinochloa crus-galli); experiment: Test B flooded paddy test, barnyardgrass; details: Flood, 500 g ai/ha; scale of 0 to 100 where 0 is no effect and 100 is complete control; 13 to 15 d
Method: as §1

[17] = test system: wheat (Triticum aestivum); experiment: Test A postemergence, wheat; details: 0 to 100 scale
Text: as §2

[18] = test system: ducksalad (Heteranthera limosa); experiment: Test B flooded paddy test, ducksalad; details: Flood, 500 g ai/ha; scale of 0 to 100 where 0 is no effect and 100 is complete control; 13 to 15 d
Method: as §1

O=C1NCC(Cc2ccccc2C(F)(F)F)C1C(=O)Nc1ccccc1C(F)(F)F (stereo not drawn) [Compound 5]
0: Plant response rating, Rice (rice (Oryza sativa)) | Plant response rating, Pigweed ([1]; 125 g ai/ha) | Plant response rating, Pigweed ([1]; 500 g ai/ha) | Plant response rating, Galium ([2]; 125 g ai/ha) | Plant response rating, Galium ([2]; 500 g ai/ha) | Plant response rating, Ragweed ([3]; 125 g ai/ha) | Plant response rating, Ragweed ([3]; 500 g ai/ha) | Plant response rating, Kochia (kochia (Kochia scoparia) [4]; 125 g ai/ha) | Plant response rating, Kochia (kochia (Kochia scoparia) [4]; 500 g ai/ha) | Plant response rating, Foxtail, Giant ([5]; 125 g ai/ha) | Plant response rating, Foxtail, Giant ([5]; 500 g ai/ha) | Plant response rating, Barnyardgrass ([6]; 125 g ai/ha) | Plant response rating, Barnyardgrass ([6]; 500 g ai/ha) | Plant response rating, Sedge, Umbrella [7] | Plant response rating, Ragweed ([8]; 125 g ai/ha) | Plant response rating, Ragweed ([8]; 500 g ai/ha) | Plant response rating, Ryegrass, It. ([9]; 125 g ai/ha) | Plant response rating, Ryegrass, It. ([9]; 500 g ai/ha) | Plant response rating, Blackgrass ([10]; 125 g ai/ha) | Plant response rating, Blackgrass ([10]; 500 g ai/ha) | Plant response rating, Corn (corn (Zea mays); 125 g ai/ha) | Plant response rating, Corn (corn (Zea mays); 500 g ai/ha) | Plant response rating, Barnyardgrass ([11]; 125 g ai/ha) | Plant response rating, Barnyardgrass ([11]; 500 g ai/ha) | Plant response rating, Ryegrass, It. ([12]; 125 g ai/ha) | Plant response rating, Ryegrass, It. ([12]; 500 g ai/ha) | Plant response rating, Foxtail, Giant ([13]; 125 g ai/ha) | Plant response rating, Foxtail, Giant ([13]; 500 g ai/ha) | Plant response rating, Kochia (kochia (Kochia scoparia) [14]; 125 g ai/ha) | Plant response rating, Kochia (kochia (Kochia scoparia) [14]; 500 g ai/ha) | Plant response rating, Pigweed ([15]; 125 g ai/ha) | Plant response rating, Pigweed ([15]; 500 g ai/ha) | Plant response rating, Barnyardgrass [16] | Plant response rating, Wheat ([17]; 125 g ai/ha) | Plant response rating, Wheat ([17]; 500 g ai/ha) | Plant response rating, Ducksalad [18]

O=C1NCC(Cc2ccc(C(F)(F)F)cc2)C1C(=O)Nc1ccccc1C(F)(F)F (stereo not drawn) [Compound 6]
0: Plant response rating, Rice (rice (Oryza sativa)) | Plant response rating, Pigweed ([1]; 125 g ai/ha) | Plant response rating, Pigweed ([1]; 500 g ai/ha) | Plant response rating, Galium ([2]; 125 g ai/ha) | Plant response rating, Galium ([2]; 500 g ai/ha) | Plant response rating, Ragweed ([3]; 125 g ai/ha) | Plant response rating, Ragweed ([3]; 500 g ai/ha) | Plant response rating, Kochia (kochia (Kochia scoparia) [4]; 125 g ai/ha) | Plant response rating, Kochia (kochia (Kochia scoparia) [4]; 500 g ai/ha) | Plant response rating, Foxtail, Giant ([5]; 125 g ai/ha) | Plant response rating, Foxtail, Giant ([5]; 500 g ai/ha) | Plant response rating, Barnyardgrass ([6]; 125 g ai/ha) | Plant response rating, Barnyardgrass ([6]; 500 g ai/ha) | Plant response rating, Sedge, Umbrella [7] | Plant response rating, Ragweed ([8]; 125 g ai/ha) | Plant response rating, Ragweed ([8]; 500 g ai/ha) | Plant response rating, Ryegrass, It. ([9]; 125 g ai/ha) | Plant response rating, Ryegrass, It. ([9]; 500 g ai/ha) | Plant response rating, Blackgrass ([10]; 125 g ai/ha) | Plant response rating, Blackgrass ([10]; 500 g ai/ha) | Plant response rating, Corn (corn (Zea mays); 125 g ai/ha) | Plant response rating, Corn (corn (Zea mays); 500 g ai/ha) | Plant response rating, Barnyardgrass ([11]; 125 g ai/ha) | Plant response rating, Barnyardgrass ([11]; 500 g ai/ha) | Plant response rating, Ryegrass, It. ([12]; 125 g ai/ha) | Plant response rating, Ryegrass, It. ([12]; 500 g ai/ha) | Plant response rating, Foxtail, Giant ([13]; 125 g ai/ha) | Plant response rating, Foxtail, Giant ([13]; 500 g ai/ha) | Plant response rating, Kochia (kochia (Kochia scoparia) [14]; 125 g ai/ha) | Plant response rating, Kochia (kochia (Kochia scoparia) [14]; 500 g ai/ha) | Plant response rating, Pigweed ([15]; 125 g ai/ha) | Plant response rating, Pigweed ([15]; 500 g ai/ha) | Plant response rating, Barnyardgrass [16] | Plant response rating, Wheat ([17]; 125 g ai/ha) | Plant response rating, Wheat ([17]; 500 g ai/ha) | Plant response rating, Ducksalad [18]
